T/C data for 20 compounds are collected here from PubChem BioAssay AID256 (DTP/NCI, 2004).

Several values for one entry are separate records, joined by “and”; a condition that tells them apart may be missing. Equal entries are not always repeated. Toxic doses and inconclusive results are not listed.

The test system of this assay is CD2F1 mice, L1210 leukemia ip, survival T/C. In words: NCI In Vivo Anticancer Drug Screen. Data for tumor model L1210 Leukemia (intraperitoneal) in CD2F1 (CDF1) mice. The note with it: higher = longer survival. A digest of the protocol: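 Vehicle-treated tumor-bearing mice served as controls (C) for compound-treated mice (T). Reported figure is T divided by C.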
Setting [1] is: endpoint: mean survival time, dose: 100.0 mg/kg/injection, schedule: Q04DX003 (ip), vehicle: saline with Tween-80.
[2] abbreviates: endpoint: mean survival time, dose: 200.0 mg/kg/injection, schedule: Q04DX003 (ip), vehicle: saline with Tween-80.
Setting [3] is: endpoint: mean survival time, dose: 400.0 mg/kg/injection, schedule: Q04DX003 (ip), vehicle: saline with Tween-80.
The mark [4] stands for this setting: endpoint: mean survival time, dose: 100.0 mg/kg/injection, schedule: Q01DX001 (ip), vehicle: saline.
Where [5] appears, read: endpoint: mean survival time, dose: 100.0 mg/kg/injection, schedule: Q01DX009 (ip), vehicle: saline with Tween-80.
Setting [6] is: endpoint: mean survival time, dose: 100.0 mg/kg/injection, schedule: Q04DX003 (ip), vehicle: saline.
The mark [7] stands for this setting: endpoint: mean survival time, dose: 200.0 mg/kg/injection, schedule: Q01DX001 (ip), vehicle: saline.
[8] abbreviates: endpoint: mean survival time, dose: 200.0 mg/kg/injection, schedule: Q01DX009 (ip), vehicle: saline with Tween-80.
Setting [9] is: endpoint: mean survival time, dose: 200.0 mg/kg/injection, schedule: Q04DX003 (ip), vehicle: saline.
Setting [10] is: endpoint: mean survival time, dose: 400.0 mg/kg/injection, schedule: Q01DX001 (ip), vehicle: saline.
Setting [11] is: endpoint: mean survival time, dose: 400.0 mg/kg/injection, schedule: Q04DX003 (ip), vehicle: saline.
Where [12] appears, read: endpoint: mean survival time, dose: 400.0 mg/kg/injection, schedule: Q01DX009 (ip), vehicle: saline with Tween-80.
The mark [13] stands for this setting: endpoint: mean survival time, dose: 100.0 mg/kg/injection, schedule: Q01DX009 (ip), vehicle: saline.
Setting [14] is: endpoint: mean survival time, dose: 200.0 mg/kg/injection, schedule: Q01DX009 (ip), vehicle: saline.
[15] abbreviates: endpoint: mean survival time, dose: 400.0 mg/kg/injection, schedule: Q01DX009 (ip), vehicle: saline.
The mark [16] stands for this setting: endpoint: mean survival time, dose: 50.0 mg/kg/injection, schedule: Q01DX009 (ip), vehicle: saline with Tween-80.

As for `Clc1ccc2c(NCc3ccncc3)ccnc2c1`, the T/C was 96 % of control under setting [1], 95 % of control under setting [2] and 96 % of control under setting [3].

With `O=C(O)C(O)C(O)C(=O)O` (centres undefined), the T/C by setting is: under setting [4], 103 % of control; under setting [5], 102 % of control; under setting [1], 97 % of control; under setting [6], 110 % of control; under setting [7], 106 % of control; under setting [8], 102 % of control. Also, the T/C reads like this: under setting [2], 92 % of control; under setting [9], 98 % of control; under setting [10], 110 % of control; under setting [3], 97 % of control; under setting [11], 101 % of control.

On to `COc1cc(CC(C)N)ccc1O` (centres undefined), for which the T/C under setting [1] is 105 % of control, the T/C under setting [2] is 100 % of control and the T/C under setting [3] is 89 % of control.

Turning to `COC(=O)c1ccccc1NC(=O)Nc1cccc(OC)c1`, the T/C was 95 % of control (endpoint: mean survival time, dose: 100.0 mg/kg/injection, schedule: Q01DX001 (ip), vehicle: Klucel (hydroxypropylcellulose) (HPC)); 101 % of control (endpoint: mean survival time, dose: 200.0 mg/kg/injection, schedule: Q01DX001 (ip), vehicle: Klucel (hydroxypropylcellulose) (HPC)); 95 % of control (endpoint: mean survival time, dose: 400.0 mg/kg/injection, schedule: Q01DX001 (ip), vehicle: Klucel (hydroxypropylcellulose) (HPC)).

In the case of `CCC1(O)C(=O)OCc2c1cc1n(c2=O)Cc2cc3cc([N+](=O)[O-])ccc3nc2-1` (centres undefined), the T/C is, setting by setting: (endpoint: median survival time, dose: 3.63 mg/kg/injection, schedule: Q04DX002 (ip), vehicle: saline with Tween-80) 185 % of control; (endpoint: median survival time, dose: 7.25 mg/kg/injection, schedule: Q04DX002 (ip), vehicle: saline with Tween-80) 233 % of control; (endpoint: median survival time, dose: 7.5 mg/kg/injection, schedule: Q04DX002 (ip), vehicle: saline with Tween-80) 183 % of control; (endpoint: median survival time, dose: 15.5 mg/kg/injection, schedule: Q04DX002 (ip), vehicle: saline with Tween-80) 219 % of control and 103 % of control.

For the compound `COC(=O)C1C=Cc2ccccc21` (centres undefined), the T/C was 95 % of control under setting [5], 95 % of control under setting [8] and 104 % of control under setting [12].

On to `CCCN1C(=O)C=CC1=O`, for which the T/C (endpoint: mean survival time, dose: 100.0 mg/kg/injection, schedule: Q01DX001 (ip), vehicle: saline with Tween-80) is 91 % of control.

Take `NCC(=O)Nc1ccc(Cl)cc1C(=O)c1ccc[nH]1`: the T/C is 89 % of control under setting [4]; 94 % of control under setting [6]; 89 % of control under setting [7]; 94 % of control under setting [9]; 92 % of control under setting [10]; 96 % of control under setting [11].

As for `CNc1nc2c(N)ncnc2n1C1OC(CO)C(O)C1O` (centres undefined), the T/C is 95 % of control (endpoint: mean survival time, dose: 3.12 mg/kg/injection, schedule: Q01DX009 (ip), vehicle: saline); 106 % of control (endpoint: mean survival time, dose: 6.25 mg/kg/injection, schedule: Q01DX009 (ip), vehicle: saline); 106 % of control and 107 % of control (endpoint: mean survival time, dose: 12.5 mg/kg/injection, schedule: Q01DX009 (ip), vehicle: saline); 98 % of control (endpoint: mean survival time, dose: 12.5 mg/kg/injection, schedule: Q04DX002 (ip), vehicle: saline); 96 % of control (endpoint: mean survival time, dose: 25.0 mg/kg/injection, schedule: Q01DX005 (ip), vehicle: distilled water + Tween-80); 115 % of control and 101 % of control (endpoint: mean survival time, dose: 25.0 mg/kg/injection, schedule: Q01DX009 (ip), vehicle: saline). Moreover, the T/C runs as follows: (endpoint: mean survival time, dose: 25.0 mg/kg/injection, schedule: Q04DX002 (ip), vehicle: saline) 102 % of control; (endpoint: mean survival time, dose: 50.0 mg/kg/injection, schedule: Q01DX005 (ip), vehicle: distilled water + Tween-80) 103 % of control; (endpoint: mean survival time, dose: 50.0 mg/kg/injection, schedule: Q01DX009 (ip), vehicle: saline) 102 % of control; (endpoint: mean survival time, dose: 50.0 mg/kg/injection, schedule: Q04DX002 (ip), vehicle: saline) 112 % of control; (endpoint: mean survival time, dose: 100.0 mg/kg/injection, schedule: Q01DX005 (ip), vehicle: distilled water + Tween-80) 100 % of control; under setting [13], 108 % of control. Further, the T/C runs as follows: (endpoint: mean survival time, dose: 200.0 mg/kg/injection, schedule: Q01DX005 (ip), vehicle: distilled water + Tween-80) 96 % of control; (endpoint: mean survival time, dose: 400.0 mg/kg/injection, schedule: Q01DX005 (ip), vehicle: distilled water + Tween-80) 101 % of control.

Turning to `CN(C)Cc1cc(CN(C)C)c(O)c(CN(C)C)c1`, the T/C runs as follows: under setting [6], 107 % of control; under setting [9], 100 % of control.

Turning to `COc1ccc(C(OCC2OC(n3ccc(NC(=O)c4ccccc4)nc3=O)C(O)C2O)(c2ccccc2)c2ccccc2)cc1` (centres undefined), the T/C runs as follows: (endpoint: median survival time, dose: 12.5 mg/kg/injection, schedule: Q01DX005 (ip), vehicle: saline with Tween-80) 100 % of control; (endpoint: median survival time, dose: 25.0 mg/kg/injection, schedule: Q01DX005 (ip), vehicle: saline with Tween-80) 104 % of control; (endpoint: median survival time, dose: 50.0 mg/kg/injection, schedule: Q01DX005 (ip), vehicle: saline with Tween-80) 104 % of control; (endpoint: median survival time, dose: 100.0 mg/kg/injection, schedule: Q01DX005 (ip), vehicle: saline with Tween-80) 98 % of control; (endpoint: median survival time, dose: 200.0 mg/kg/injection, schedule: Q01DX005 (ip), vehicle: saline with Tween-80) 95 % of control.

Regarding `CC(=O)OCC1OC(n2ncnc2CBr)C(OC(C)=O)C(OC(C)=O)C1OC(C)=O` (centres undefined), the T/C by setting is: (endpoint: median survival time, dose: 12.5 mg/kg/injection, schedule: Q01DX005 (ip), vehicle: distilled water + Tween-80) 108 % of control; (endpoint: median survival time, dose: 25.0 mg/kg/injection, schedule: Q01DX005 (ip), vehicle: distilled water + Tween-80) 97 % of control; (endpoint: median survival time, dose: 50.0 mg/kg/injection, schedule: Q01DX005 (ip), vehicle: distilled water + Tween-80) 104 % of control.

Consider `CCC(C)CC(=O)O` (centres undefined), for which the T/C was 95 % of control under setting [13]; 102 % of control under setting [6]; 98 % of control under setting [14]; 102 % of control under setting [9]; 96 % of control under setting [15]; 97 % of control under setting [11].

Turning to `O=C(CC1(O)C(=O)Nc2ccccc21)c1c[nH]c2ccccc12` (centres undefined), the T/C by setting is: under setting [16], 95 % of control; under setting [5], 98 % of control; under setting [8], 91 % of control.

For the compound `O=C1C(=O)c2ccccc2C(O)=C1C(C1=C(O)c2ccccc2C(=O)C1=O)c1ccc(C(C2=C(O)c3ccccc3C(=O)C2=O)C2=C(O)c3ccccc3C(=O)C2=O)cc1`, the T/C reads like this: (endpoint: mean survival time, dose: 100.0 mg/kg/injection, schedule: Q01DX009 (ip), vehicle: saline sonified) 96 % of control; (endpoint: mean survival time, dose: 200.0 mg/kg/injection, schedule: Q01DX009 (ip), vehicle: saline sonified) 97 % of control; (endpoint: mean survival time, dose: 400.0 mg/kg/injection, schedule: Q01DX009 (ip), vehicle: saline sonified) 108 % of control.

Regarding `COc1cccc(CCNC(=O)CCN2C(=O)CCC2=O)c1`, the T/C runs as follows: under setting [5], 98 % of control; (endpoint: mean survival time, dose: 100.0 mg/kg/injection, schedule: Q04DX003 (ip), vehicle: saline sonified) 101 % of control; under setting [8], 93 % of control; (endpoint: mean survival time, dose: 200.0 mg/kg/injection, schedule: Q04DX003 (ip), vehicle: saline sonified) 98 % of control; under setting [12], 100 % of control; (endpoint: mean survival time, dose: 400.0 mg/kg/injection, schedule: Q04DX003 (ip), vehicle: saline sonified) 104 % of control.

Consider `CCCCCCCCCCCC(=O)N(C)CCS(=O)(=O)O`, for which the T/C was 103 % of control under setting [13], 101 % of control under setting [14] and 109 % of control under setting [15].

With `CCOC(=O)CN1C(=O)CN=C(c2ccccn2)c2cc(Cl)ccc21`, the T/C was 102 % of control under setting [1], 89 % of control under setting [2] and 89 % of control under setting [3].

As to `OC(CN1CCCCC1)c1ccncc1` (centres undefined), the T/C (endpoint: mean survival time, dose: 75.0 mg/kg/injection, schedule: Q01DX001 (ip), vehicle: saline) is 95 % of control; the T/C (endpoint: mean survival time, dose: 150.0 mg/kg/injection, schedule: Q01DX001 (ip), vehicle: saline) is 95 % of control; the T/C (endpoint: mean survival time, dose: 300.0 mg/kg/injection, schedule: Q01DX001 (ip), vehicle: saline) is 95 % of control.

With `CCOC(=O)c1c(OC)cc2n(c1=O)Cc1cc3ccccc3nc1-2`, the T/C (endpoint: mean survival time, dose: 25.0 mg/kg/injection, schedule: Q01DX009 (ip), vehicle: saline with Tween-80) is 98 % of control; the T/C under setting [16] was 98 % of control; the T/C under setting [5] was 101 % of control; the T/C under setting [1] is 90 % of control.
